Measurements: patent US12077503B2, “Substituted cyclic amides and their use as herbicides” (FMC CORPORATION, priority 2015, dated 2024)

What was measured:
Format in all cases: in vivo
[1] = tested on: redroot pigweed (Amaranthus retroflexus); test: Test G Pre-Emergence Protocol; conditions: Amaranthus retroflexus, pre-emergence, 312 h, evaluated after 13 days
How it was run: (§1)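 Seeds were sown in standard soil and kept one day in a glasshouse (24/16° C day/night, 14 h light, 65% humidity), then sprayed with compound in acetone/water (50:50) containing 0.5% Tween 20 at 15.625, 62.5 or 250 g/ha. Damage was scored after 13 days (0 = none, 100 = total).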

[2] = tested on: corn (Zea mays); test: Test G Pre-Emergence Protocol; conditions: Zea mays, pre-emergence, 312 h, evaluated after 13 days
How it was run: as §1

[3] = tested on: velvetleaf (Abutilon theophrasti); test: Test G Pre-Emergence Protocol; conditions: Abutilon theophrasti, pre-emergence, 312 h, evaluated after 13 days
How it was run: as §1

[4] = tested on: ivy-leaved morning glory (Ipomoea hederacea); test: Test G Pre-Emergence Protocol; conditions: Ipomoea, pre-emergence, 312 h, evaluated after 13 days
How it was run: as §1

[5] = tested on: giant foxtail (Setaria faberi); test: Test G Pre-Emergence Protocol; conditions: Setaria faberi, pre-emergence, 312 h, evaluated after 13 days
How it was run: as §1

[6] = tested on: barnyardgrass (Echinochloa crus-galli); test: Test G Pre-Emergence Protocol; conditions: Echinochloa crus-galli, pre-emergence, 312 h, evaluated after 13 days
How it was run: as §1

[7] = tested on: redroot pigweed (Amaranthus retroflexus); test: Test G Post-Emergence Protocol; conditions: Amaranthus retroflexus, post-emergence, 312 h
How it was run: (§2)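 A glasshouse post-emergence test: 8-day-old plants sprayed at 15.625, 62.5 or 250 g/ha, then grown at 24/16 °C day/night with 14 h light and 65% humidity. Damage rated 13 days later, 0–100.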

[8] = tested on: corn (Zea mays); test: Test G Post-Emergence Protocol; conditions: Zea mays, post-emergence, 312 h
How it was run: as §2

[9] = tested on: velvetleaf (Abutilon theophrasti); test: Test G Post-Emergence Protocol; conditions: Abutilon theophrasti, post-emergence, 312 h
How it was run: as §2

[10] = tested on: ivy-leaved morning glory (Ipomoea hederacea); test: Test G Post-Emergence Protocol; conditions: Ipomoea, post-emergence, 312 h
How it was run: as §2

[11] = tested on: giant foxtail (Setaria faberi); test: Test G Post-Emergence Protocol; conditions: Setaria faberi, post-emergence, 312 h
How it was run: as §2

[12] = tested on: barnyardgrass (Echinochloa crus-galli); test: Test G Post-Emergence Protocol; conditions: Echinochloa crus-galli, post-emergence, 312 h
How it was run: as §2

**Q.** With Cc1cccc(NC(=O)[C@H]2C(=O)N(C)C[C@@H]2c2ccc(C(F)(F)F)cc2)c1C#N (racemic) [Compound 1413] as the molecule, how does the pest or weed control at 15.625 g/ha ([1]; 15.625 g ai/ha, read-out: Pigweed, Redroot damage rating (100=total damage to plant; 0=no damage to plant)) read?
**A.** Its pest or weed control at 15.625 g/ha is 0%.

**Q.** And the pest or weed control at 62.5 g/ha ([1]; 62.5 g ai/ha, 100=total damage to plant, 0=no damage to plant, read-out: plant damage rating, Pigweed, Redroot)?
**A.** Its pest or weed control at 62.5 g/ha is 20%.

**Q.** And the pest or weed control at 250 g/ha ([1]; 250 g ai/ha, read-out: Pigweed, Redroot damage rating (100=total damage to plant; 0=no damage to plant))?
**A.** Its pest or weed control at 250 g/ha is 20%.

**Q.** What about the plant injury at 15.625 g/ha ([2]; 15.625 g ai/ha, read-out: Corn damage rating (100=total damage to plant; 0=no damage to plant)) of the same molecule?
**A.** The plant injury at 15.625 g/ha was 0%.

**Q.** What about the plant injury at 62.5 g/ha ([2]; 62.5 g ai/ha, 100=total damage to plant, 0=no damage to plant, read-out: plant damage rating, Corn) of the same molecule?
**A.** The plant injury at 62.5 g/ha was 0%.

**Q.** What about the plant injury at 250 g/ha ([2]; 250 g ai/ha, read-out: Corn damage rating (100=total damage to plant; 0=no damage to plant)) of the same molecule?
**A.** Its plant injury at 250 g/ha is 0%.

**Q.** What about the pest or weed control at 15.625 g/ha ([3]; 15.625 g ai/ha, read-out: Velvetleaf damage rating (100=total damage to plant; 0=no damage to plant)) of the same molecule?
**A.** Its pest or weed control at 15.625 g/ha is 0%.

**Q.** And the pest or weed control at 62.5 g/ha ([3]; 62.5 g ai/ha, 100=total damage to plant, 0=no damage to plant, read-out: plant damage rating, Velvetleaf)?
**A.** The pest or weed control at 62.5 g/ha was 0%.

**Q.** And the pest or weed control at 250 g/ha ([3]; 250 g ai/ha, read-out: Velvetleaf damage rating (100=total damage to plant; 0=no damage to plant))?
**A.** The pest or weed control at 250 g/ha was 0%.

**Q.** What about the pest or weed control at 15.625 g/ha ([4]; 15.625 g ai/ha, read-out: Morning-glory, Ivy-leaved damage rating (100=total damage to plant; 0=no damage to plant)) of the same molecule?
**A.** Its pest or weed control at 15.625 g/ha is 0%.

**Q.** What about the pest or weed control at 62.5 g/ha ([4]; 62.5 g ai/ha, 100=total damage to plant, 0=no damage to plant, read-out: plant damage rating, Morningglory, Ivy-leaved) of the same molecule?
**A.** Its pest or weed control at 62.5 g/ha is 0%.

**Q.** What about the pest or weed control at 250 g/ha ([4]; 250 g ai/ha, read-out: Morningglory, Ivy-leaved damage rating (100=total damage to plant; 0=no damage to plant)) of the same molecule?
**A.** The pest or weed control at 250 g/ha was 0%.

**Q.** What about the pest or weed control at 15.625 g/ha ([5]; 15.625 g ai/ha, read-out: Foxtail, Giant damage rating (100=total damage to plant; 0=no damage to plant)) of the same molecule?
**A.** Its pest or weed control at 15.625 g/ha is 0%.

**Q.** And the pest or weed control at 62.5 g/ha ([5]; 62.5 g ai/ha, 100=total damage to plant, 0=no damage to plant, read-out: plant damage rating, Foxtail, Giant)?
**A.** The pest or weed control at 62.5 g/ha was 60%.

**Q.** And the pest or weed control at 250 g/ha ([5]; 250 g ai/ha, read-out: Foxtail, Giant damage rating (100=total damage to plant; 0=no damage to plant))?
**A.** Its pest or weed control at 250 g/ha is 90%.

**Q.** What about the pest or weed control at 15.625 g/ha ([6]; 15.625 g ai/ha, read-out: Barnyard grass damage rating (100=total damage to plant; 0=no damage to plant)) of the same molecule?
**A.** The pest or weed control at 15.625 g/ha was 0%.

**Q.** What about the pest or weed control at 62.5 g/ha ([6]; 62.5 g ai/ha, 100=total damage to plant, 0=no damage to plant, read-out: plant damage rating, Barnyardgrass) of the same molecule?
**A.** Its pest or weed control at 62.5 g/ha is 20%.

**Q.** What about the pest or weed control at 250 g/ha ([6]; 250 g ai/ha, read-out: Barnyardgrass damage rating (100=total damage to plant; 0=no damage to plant)) of the same molecule?
**A.** The pest or weed control at 250 g/ha was 80%.

**Q.** What about the pest or weed control at 15.625 g/ha ([7]; 15.625 g ai/ha, evaluated after 13 days (100=total damage to plant; 0=no damage to plant), read-out: Pigweed, Redroot damage rating) of the same molecule?
**A.** The pest or weed control at 15.625 g/ha was 0%.

**Q.** And the pest or weed control at 62.5 g/ha ([7]; 62.5 g ai/ha, evaluated after 13 days, read-out: Pigweed, Redroot damage rating (100=total damage to plant; 0=no damage to plant))?
**A.** Its pest or weed control at 62.5 g/ha is 10%.

**Q.** And the pest or weed control at 250 g/ha ([7]; 250 g ai/ha, evaluated after 13 days, read-out: damage to plant, Pigweed, Redroot (100=total damage to plant; 0=no damage to plant))?
**A.** The pest or weed control at 250 g/ha was 20%.

**Q.** And the plant injury at 15.625 g/ha ([8]; 15.625 g ai/ha, evaluated after 13 days (100=total damage to plant; 0=no damage to plant), read-out: Corn damage rating)?
**A.** The plant injury at 15.625 g/ha was 0%.

**Q.** What about the plant injury at 62.5 g/ha ([8]; 62.5 g ai/ha, evaluated after 13 days, read-out: Corn damage rating (100=total damage to plant; 0=no damage to plant)) of the same molecule?
**A.** The plant injury at 62.5 g/ha was 0%.

**Q.** And the plant injury at 250 g/ha ([8]; 250 g ai/ha, evaluated after 13 days, read-out: damage to plant, Corn (100=total damage to plant; 0=no damage to plant))?
**A.** The plant injury at 250 g/ha was 0%.

**Q.** What about the pest or weed control at 15.625 g/ha ([9]; 15.625 g ai/ha, evaluated after 13 days (100=total damage to plant; 0=no damage to plant), read-out: Velvetleaf damage rating) of the same molecule?
**A.** The pest or weed control at 15.625 g/ha was 0%.

**Q.** And the pest or weed control at 62.5 g/ha ([9]; 62.5 g ai/ha, evaluated after 13 days, read-out: Velvetleaf damage rating (100=total damage to plant; 0=no damage to plant))?
**A.** Its pest or weed control at 62.5 g/ha is 0%.

**Q.** What about the pest or weed control at 250 g/ha ([9]; 250 g ai/ha, evaluated after 13 days, read-out: damage to plant, Velvetleaf (100=total damage to plant; 0=no damage to plant)) of the same molecule?
**A.** Its pest or weed control at 250 g/ha is 10%.

**Q.** What about the pest or weed control at 15.625 g/ha ([10]; 15.625 g ai/ha, evaluated after 13 days (100=total damage to plant; 0=no damage to plant), read-out: Morningglory, Ivy-leaved damage rating) of the same molecule?
**A.** The pest or weed control at 15.625 g/ha was 0%.

**Q.** And the pest or weed control at 62.5 g/ha ([10]; 62.5 g ai/ha, evaluated after 13 days, read-out: Morningglory, Ivy-leaved damage rating (100=total damage to plant; 0=no damage to plant))?
**A.** Its pest or weed control at 62.5 g/ha is 0%.

**Q.** And the pest or weed control at 250 g/ha ([10]; 250 g ai/ha, evaluated after 13 days, read-out: damage to plant, Morningglory, Ivy-leaved (100=total damage to plant; 0=no damage to plant))?
**A.** Its pest or weed control at 250 g/ha is 0%.

**Q.** What about the pest or weed control at 15.625 g/ha ([11]; 15.625 g ai/ha, evaluated after 13 days (100=total damage to plant; 0=no damage to plant), read-out: Foxtail, Giant damage rating) of the same molecule?
**A.** Its pest or weed control at 15.625 g/ha is 40%.

**Q.** And the pest or weed control at 62.5 g/ha ([11]; 62.5 g ai/ha, evaluated after 13 days, read-out: Foxtail, Giant damage rating (100=total damage to plant; 0=no damage to plant))?
**A.** Its pest or weed control at 62.5 g/ha is 70%.

**Q.** What about the pest or weed control at 250 g/ha ([11]; 250 g ai/ha, evaluated after 13 days, read-out: damage to plant, Foxtail, Giant (100=total damage to plant; 0=no damage to plant)) of the same molecule?
**A.** Its pest or weed control at 250 g/ha is 70%.

**Q.** And the pest or weed control at 15.625 g/ha ([12]; 15.625 g ai/ha, evaluated after 13 days (100=total damage to plant; 0=no damage to plant), read-out: Barnyardgrass damage rating)?
**A.** The pest or weed control at 15.625 g/ha was 20%.

**Q.** And the pest or weed control at 62.5 g/ha ([12]; 62.5 g ai/ha, evaluated after 13 days, read-out: Barnyardgrass damage rating (100=total damage to plant; 0=no damage to plant))?
**A.** The pest or weed control at 62.5 g/ha was 50%.

**Q.** And the pest or weed control at 250 g/ha ([12]; 250 g ai/ha, evaluated after 13 days, read-out: damage to plant, Barnyardgrass (100=total damage to plant; 0=no damage to plant))?
**A.** The pest or weed control at 250 g/ha was 60%.
